The results in this text go back to US20100041972A1, “APPARATUS AND METHODS” (priority 2006, published 2010).

Assay [1] relates to rat dorsal raphe. The experiment in a line: MEA recording of neuronal firing in rat dorsal raphe slice. It counts as cell-based. The conditions noted are these: channels 34, 43, 48 and 57; heterogeneity noted.
Experimental: Wistar rats or mice obtained from Charles River were sacrificed by cervical dislocation. The brain was rapidly removed and a block of tissue containing the relevant area was prepared. Brain tissue was glued onto a glass slide using cyanoacryalate glue (Permabond C2). The block was supported by a similar sized block of agar (3% in NaCl, 126 mM) glued immediately behind the brain block. Coronal slices (300 μm thick) of the relevant brain slice were cut from the brain using a Vibratome™ (Oxford Instruments, supplied by Intracel, Unit 4, Station Road, Shepreth, Royston. Herts. UK). The slices were transferred to artificial cerebrospinal fluid (ACSF) which contained (in mM): NaCl 126, KCl 5, NaH2PO4 1.24, CaCl2 2.4, MgCl2 1.3, NaHCO3 26, glucose 10, at pH 7.4, continuously bubbled with ‘carbogen’ (95% O2/5% CO2) and maintained at room temperature. […]
Extracelular action potentials were recorded from either isolated neurones, or several neurones per electrode. […]
All spike waveforms or LFP ‘events’ that crossed a pre-set voltage threshold (−12 and −8 pV respectively) were stored as both ‘time-stamps’ (i.e. ‘time of occurrence’), and as ‘spike cut-outs’ (i.e. digitised waveform prior to, and after threshold crossing). All experimental data were recorded directly on to hard disk, and backed up onto various means of data archiving. […]
Assay [2] deals with olfactory bulb mitral cells. The experiment in a line: Acute in vivo MEA recording of odour response in olfactory bulb. Details: species or system male Wistar rats. The conditions noted are these: odour at 5.42×10^−6 M in breathing air, urethane anaesthesia. The text has this:
Multi-electrode array recordings from olfactory bulb mitral cells (5×5 array). 1. Spontaneous population burst. 2. Control, no odour. 3. Arnyl acetate. 4. N-butanol. 5. Cineole. 6. Pinene. 7. DL-Camphor. 8. Linalool (max response). 9. Linalool “off response”. […] The results are shown as peak odour response neuronal activity maps in olfactory bulb. These records were from male Wistar rats (400 g) anaesthetized with urethane and secured in a stereotaxic unit). The NeuroZonds MEAs of the invention penetrated the left olfactory bulbs horizontally (after left enucleation). The odours were presented in the animals breathing air under the control of the normal breathing cycle (detected by thermistor probe in mask), diluted from stock in pure nitrogen. The concentrations of odourants were determined according to the relative saturation vapour pressures of the odourants at particular temperatures via a custom-built ‘olfactometer’.

As to `O=C1c2ccccc2C(Cc2ccncc2)(Cc2ccncc2)c2ccccc21` [XE-991], the “neuronal firing, effect of XE-991 after retigabine” value in assay [1] is given as “recovery of retigabine inhibition”.
Regarding pinene, the “spatiotemporal dynamics of odour response” value in assay [2] is “marked “off response””.
